Assay results: patent publication US8865763B2, “Methods and compositions for altering cell function” (Alltech, Inc., priority 2005, dated 2014)

Tests used:
[1] = system: LIM homeobox protein 8 gene (Lhx8); assay: Microarray gene expression, mouse intestine: Lhx8; assay type: in vivo; details: diet 1 ppm Se, vs selenium deficient
From the text: (§1) Animal Care. Male C57BL/6J mice were housed singly and started on the experimental diets described below immediately after weaning (21 days of age). The mice were maintained in the Shared Aging Rodent Facility at the William S. Middleton Memorial Veterans Administration Medical Center (Madison, Wis.). Temperature and humidity were maintained at constant levels. Room light was controlled to provide 12-hr cycles of light and dark.
(§2) Experimental diets were created by Harlan Teklad (Madison, Wis.). Selenium content of the diets was determined by Covance Inc. (Madison, Wis.). Five (5) animals were included in each of the following treatment groups: a diet deficient in selenium (SD); a diet supplemented with selenomethionine (SM, obtained from Sigma, St. Louis, Mo.) such that the final selenium content of the diet was one (1) part per million; a diet supplemented with sodium selenite (SS, Sigma) such that the final concentration of selenium in this diet was one (1) part per million; or a diet supplemented with the yeast selenium SEL-PLEX (SP, Alltech, Lexington, Ky.), such that the final concentration of selenium in this diet was one (1) part per million. SEL-PLEX. […]
(§3) Tissue sample preparation and microarray analysis. […] For intestinal expression studies, the intestine was flushed twice with saline solution and small intestine was measured and divided in three equal segments. […]

[2] = system: Prohibitin (Phb); assay: Microarray gene expression, mouse intestine: Phb; assay type: in vivo; details: diet 1 ppm Se, vs selenium deficient
From the text: as §1, §2, §3

[3] = system: Complement component 1, q subcomponent, gamma polypeptide, C1qg; assay: Microarray gene expression, mouse cerebral cortex: C1qg; assay type: in vivo; details: diet 1 ppm Se, vs selenium deficient, * p<0.01
From the text: as §1, §2, §3

[4] = system: Glutathione Peroxidase 3; assay: Microarray gene expression, mouse intestine: Glutathione Peroxidase 3; assay type: in vivo; details: diet 1 ppm Se, vs selenium deficient, all p < 0.01
From the text: as §1, §2, §3

[5] = system: Neurogenin 3 (Neurog3); assay: Microarray gene expression, mouse intestine: Neurog3; assay type: in vivo; details: diet 1 ppm Se, vs selenium deficient
From the text: as §1, §2, §3

[6] = Body weight of mice on selenium diets; assay type: in vivo, mouse; details: mouse, in vivo
From the text: as §1
Experimental diets were created by Harlan Teklad (Madison, Wis.). Selenium content of the diets was determined by Covance Inc. (Madison, Wis.). […]
Thus, it was an object of the present invention to determine whether compositions and methods of the present invention could alter the expression levels (e.g., mRNA levels) of various genes. One group of genes analyzed were genes classically associated with selenium. As described above, the expression levels of genes were analyzed between mice with and without dietary selenium, or, between mice fed different sources of selenium) (See, e.g., Table 1, below).

[7] = system: Selenoprotein W (SelW); assay: Microarray gene expression, mouse intestine: SelW; assay type: in vivo; details: diet 1 ppm Se, vs selenium deficient
From the text: as §1, §2, §3

[8] = system: Type 1 iodothyronine deiodinase; assay: Microarray gene expression, mouse intestine: Type 1 iodothyronine deiodinase; assay type: in vivo; details: diet 1 ppm Se, vs selenium deficient
From the text: as §1, §2, §3

[9] = system: sprouty homolog 2 gene (Spry2); assay: Microarray gene expression, mouse intestine: Spry2; assay type: in vivo; details: diet 1 ppm Se, vs Se-deficient controls
From the text: as §1, §2, §3

[10] = system: Growth arrest and DNA-damage-inducible 45 gamma (Gadd45g); assay: Microarray gene expression, mouse intestine: Gadd45g; assay type: in vivo; details: diet 1 ppm Se, vs selenium deficient, negative = down
From the text: as §1
Experimental diets were created by Harlan Teklad (Madison, Wis.). Selenium content of the diets was determined by Covance Inc. (Madison, Wis.). Five (5) animals were included in each of the following treatment groups: a diet deficient in selenium (SD); a diet supplemented with selenomethionine (SM, obtained from Sigma, St. Louis, Mo.) such that the final selenium content of the diet was one (1) part per million; a diet supplemented with sodium selenite (SS, Sigma) such that the final concentration of selenium in this diet was one (1) part per million; or a diet supplemented with the yeast selenium SEL-PLEX (SP, Alltech, Lexington, Ky.), such that the final concentration of selenium in this diet was one (1) part per million. SEL-PLEX. Mice were provided with water and their respective diet ad libitum for 100 days. Diets were stored at the dark at 4° C. and fresh diet was added to feeder twice weekly.
Tissue sample preparation and microarray analysis. Mice were killed at 100 days of age by cervical dislocation. For intestinal expression studies, the intestine was flushed twice with saline solution and small intestine was measured and divided in three equal segments. A 3-cm region of the middle segment of the small intestine corresponding to the jejunum (˜300 mg of tissue) was cut and rinsed again with physiological saline to completely remove contents, flash frozen in liquid nitrogen and stored at −80° C. For brain (e.g., cerebral cortex) studies, the cerebral cortex was separated from the surrounding brain tissue and was flash frozen in liquid nitrogen and stored at −80° C. […]

[11] = system: Glutathione Peroxidase 1; assay: Microarray gene expression, mouse intestine: Glutathione Peroxidase 1; assay type: in vivo; details: diet 1 ppm Se, vs selenium deficient, all p < 0.01
From the text: as §1, §2, §3

[12] = system: SelR (Selenoprotein X1); assay: Microarray gene expression, mouse intestine: SelR; assay type: in vivo; details: diet 1 ppm Se, vs selenium deficient
From the text: as §1, §2, §3

[13] = system: CORS-26; assay: Microarray gene expression, mouse cerebral cortex: CORS-26; assay type: in vivo; details: diet 1 ppm Se, vs selenium deficient
From the text: as §1, §2, §3

[14] = system: selenoprotein N1 (Sepn1); assay: Microarray gene expression, mouse intestine: Sepn1; assay type: in vivo; details: diet 1 ppm Se, vs selenium deficient
From the text: as §1, §2, §3

[15] = system: type II iodothyronine deiodinase (Dio2); assay: Microarray gene expression, mouse intestine: Dio2; assay type: in vivo; details: diet 1 ppm Se, vs selenium deficient
From the text: as §1, §2, §3

[16] = system: transforming growth factor beta 2 (TGF-β2); assay: Microarray gene expression, mouse intestine: TGF-β2; assay type: in vivo; details: diet 1 ppm Se, vs controls
From the text: as §1, §2, §3

[17] = system: Glyoxalase 1 (Glo1); assay: Microarray gene expression, mouse intestine: Glo1; assay type: in vivo; details: diet 1 ppm Se, vs selenium deficient
From the text: as §1, §2, §3

C[Se]CC[C@H](N)C(=O)O [SeM, selenomethionine]
expression of Lhx8, fold upregulated [1]: not significantly different | expression of Prohibitin (Phb), fold upregulated [2]: 1.6 fold | FC (fold change) expression of C1qg [3]: 1.0 fold | fold change in expression of Glutathione Peroxidase 3 [4]: 4.6 fold | Neurog3 expression, fold upregulated [5]: no significant alteration | body weights of mice [6]: No significant differences | expression of Selenoprotein W (SelW), fold upregulated [7]: not significantly altered | fold increase of expression level of Type 1 iodothyronine deiodinase [8]: 2.0 fold | Spry2 gene expression, fold reduction [9]: no alteration in expression levels | FC (fold change) expression of Gadd45g [10]: decreased expression | FC (fold change) expression of Gadd45g ([10]; listed as SM): −1.5 fold | fold change in expression of Glutathione Peroxidase 1 [11]: 4.9 fold | expression of SelR, fold upregulated [12]: not significantly affected | expression of CORS-26, fold reduction [13]: no alteration in expression levels | expression of selenoprotein N1 (Sepn1), fold increased [14]: not significantly affected | expression of Dio2, fold down-regulation [15]: no ability to alter the expression levels | expression of TGF-β2 (printed TGF-β), fold upregulated [16]: not altered | expression of Glo1, fold reduction [17]: not significantly affected
